Results published in patent US20230030989A1, “JUST SUNSCREEN” (Pouch Pac Innovations, LLC, priority 2019, published 2023).

Conditions: in vivo
Source text: Subjects reported to the testing facility, at which time inclusion/exclusion criteria was reviewed and Informed Consent obtained. Upon verification of eligibility to enroll, the test articles were applied to the upper arm of each subject. The test articles were applied to the Webril□ disks according to a dose regime (see Section 5.1). The skin was marked with dots of crystal violet applied on either side of the top disk and below the bottom disk of the strip to enable exact location of subsequent patches. Each subject was asked to avoid the dye marks during washing and to keep the patches dry.
Subjects received patches containing the test article and two standard controls which were applied as 0.2 ml/0.2 g samples in one of five randomly assigned orders on the upper arm. The sample order for each subject was documented and maintained throughout the study in the form of a color-coded identification card. Subjects were instructed to keep the patches dry and in place for 23 hours then to remove and discard them and to return to the test center one hour later. Patches were applied on Days 1, 2, 3 and 4. Patches were applied to the same site on each day unless a reaction stronger than a mild erythema (i.e. greater than a score of 1.5 (Appendix 5)) was present in which case the patch strip was cut and the relevant patch (es) not reapplied. Assessment of patch sites was immediately before application of the next patch on Days 2, 3, 4 and on Day 5. After removal of the patches the test sites were wiped with a damp tissue to remove any remaining product.

- patch site score Day 2, MEAN: 0.08
- patch site score Day 3, MEAN: 0.37
- patch site score Day 4, MEAN: 0.63
- patch site score Day 5, MEAN: 0.82
Compound: CCCCCCCCCCCCOS(=O)(=O)[O-].[Na+] [0.3% W/V SLS]
